The test concerns the target T1, rHPLOE (recombinant hemolymph plasma lectin).
T1 construct: gene hpl; E. coli codon-optimised synthetic gene hplOE in pET-23a(+), BL21(DE3) with chaperones (pG-KJE8); His-tag kept; HisTrap purified
Briefly: competitive ELISA against coated PA14 biofilm extract. Set-up: species or system Tachypleus tridentatus. The settings on record: 0.1 uM rHPLOE; 37 °C, 1 h; competitor of binding to cell-free P. aeruginosa PA14 biofilm; one-site Ki fit. The text has this:
competitive ELISA against coated PA14 biofilm extract on rHPLOE (recombinant hemolymph plasma lectin) | The inhibitory constant (Ki) of L-rhamnose to rHPLOE interaction with the biofilm
For orientation: In an ELISA, binding on a coated surface is turned into a signal by an enzyme label.

Structures are written as SMILES.

The record followed here is publication PMC6628293, “Rhamnose Binding Protein as an Anti-Bacterial Agent—Targeting Biofilm of Pseudomonas aeruginosa” (Marine Drugs, 2019).

Broadly, the Ki is a measure of affinity in units of concentration, obtained from inhibition or displacement. Turning to `C[C@@H]1OC(O)[C@H](O)[C@H](O)[C@H]1O` (stereo partly drawn) [L-rhamnose], the Ki was determined as 98 mM.
